{"source": "patent US20210322582A1", "about": "“RADIOACTIVE IMIDAZOTHIADIAZOLE DERIVATIVE COMPOUND” (Nihon Medi-Physics Co., Ltd., priority 2018, published 2021)", "key": {"HT-29-transplanted tumor": {"system": "HT-29-transplanted tumor", "assay": "Biodistribution of [^111In]ITDA1 in HT-29 cancer-bearing mouse", "type": "in vivo", "settings": "for Accumulation of radioactivity: Blood / Accumulation of radioactivity: Brain / Accumulation of radioactivity: Heart / Accumulation of radioactivity: Intestines / Accumulation of radioactivity: Kidney / Accumulation of radioactivity: Liver / Accumulation of radioactivity: Lungs / Accumulation of radioactivity: Muscle / Accumulation of radioactivity: Pancreas / Accumulation of radioactivity: Spleen / Accumulation of radioactivity: Stomach / Accumulation of radioactivity: Tumor (HT-29) / Tumor/blood / Tumor/muscle: HT-29 mouse", "procedure": "HT-29 cells (5×10^6 cells/mouse) were subcutaneously inoculated into the left shoulder of each of 5-week old male BALB/c nude mice (purchased from Shimizu Laboratory Supplies Co., Ltd., the same applies to the following Examples). A saline solution (100 μL) in which [^111In]ITDA1 (37 kBq) had been dissolved was administered to each of the HT-29 cancer-bearing mice (n=5) via the tail vein. The mice were slaughtered after the lapse of 1, 4, 8, and 24 hours from the administration, and the blood, spleen, pancreas, stomach, intestines, kidney, liver, heart, lungs, brain, HT-29-transplanted tumor, and muscle were recovered. The weight of each organ was measured, and the amount of radioactivity in each organ was measured by using a gamma counter. The accumulation of radioactivity in each organ was expressed by % ID (injected dose)/g obtained by dividing the ratio of the amount of radioactivity of each organ to the administered amount of radioactivity by the organ weight."}, "MDA-MB-231 tumor": {"system": "MDA-MB-231 tumor", "assay": "SPECT/CT imaging using [^111In]ITDA1", "type": "in vivo", "settings": "MDA-MB-231 cancer-bearing mouse, 24 hours from administration", "procedure": "HT-29 cells (5×10^6 cells/mouse) and MDA-MB-231 cells (5×10^6 cells/mouse) were subcutaneously inoculated into the left shoulders of 5-week old male BALB/c nude mice, respectively. A saline solution (150 μL) in which [^111In]ITDA1 (23.8 to 26.2 MBq) had been dissolved was administered to each of the cancer-bearing mice via the tail vein. Each of the mice was subjected to SPECT/CT imaging after the lapse of 1, 4, 8, and 24 hours from the administration. U-SPECT-II/CT (single-pinhole collimator 0.6 or 1.0 mm, resolution: 0.45 mm) manufactured by Milab was used as the SPECT/CT device, and data were collected for 60 minutes in 1, 4, 8, and 24 hours from the administration.\nThe collected data were reconstructed by a three-dimensional ordered-subset expectation maximization (3D-OSEM) method. The results of HT-29 cancer-bearing mouse are shown in FIG. 6A, and the results of MDA-MB-231 cancer-bearing mouse are shown in FIG. 6B."}}, "note": "Values joined by “and” are separate entries in the source; they are usually repeats but may differ in a detail not shown here. Equal values may be shown once."}
{"smiles": "NS(=O)(=O)c1nn2cc(-c3ccc(NC(=O)CN4CCN(CC(=O)O)CCN(CC(=O)O)CCN(CC(=O)O)CC4)cc3)nc2s1.[111In+3]", "note": "[[^111In]ITDA1, [^111In]indium(III)2,2′,2″-(10-(2-oxo-2-((4-(2-sulfamoylimidazo[2,1-b][1,3,4]thiadiazol-6-yl)phenyl)amino)ethyl)-1,4,7,10-tetraazacyclododecan-1,4,7-triyl) triacetic acid]", "values": [{"measurement": "Accumulation of radioactivity: Blood", "setting": "HT-29-transplanted tumor; 1 h after administration", "value": "0.27 ± 0.03 % ID/tissue weight (g)"}, {"measurement": "Accumulation of radioactivity: Brain", "setting": "HT-29-transplanted tumor; 1 h after administration", "value": "0.30 ± 0.02 % ID/tissue weight (g)"}, {"measurement": "Accumulation of radioactivity: Heart", "setting": "HT-29-transplanted tumor; 1 h after administration", "value": "7.58 ± 1.20 % ID/tissue weight (g)"}, {"measurement": "Accumulation of radioactivity: Intestines", "setting": "HT-29-transplanted tumor; 1 h after administration", "value": "10.86 ± 1.27 % ID/tissue weight (g)"}, {"measurement": "Accumulation of radioactivity: Kidney", "setting": "HT-29-transplanted tumor; 1 h after administration", "value": "111.20 ± 12.39 % ID/tissue weight (g)"}, {"measurement": "Accumulation of radioactivity: Liver", "setting": "HT-29-transplanted tumor; 1 h after administration", "value": "3.59 ± 0.98 % ID/tissue weight (g)"}, {"measurement": "Accumulation of radioactivity: Lungs", "setting": "HT-29-transplanted tumor; 1 h after administration", "value": "13.49 ± 5.52 % ID/tissue weight (g)"}, {"measurement": "Accumulation of radioactivity: Muscle", "setting": "HT-29-transplanted tumor; 1 h after administration", "value": "5.44 ± 1.59 % ID/tissue weight (g)"}, {"measurement": "Accumulation of radioactivity: Pancreas", "setting": "HT-29-transplanted tumor; 1 h after administration", "value": "31.32 ± 5.29 % ID/tissue weight (g)"}, {"measurement": "Accumulation of radioactivity: Spleen", "setting": "HT-29-transplanted tumor; 1 h after administration", "value": "0.33 ± 0.10 % ID/tissue weight (g)"}, {"measurement": "Accumulation of radioactivity: Stomach", "setting": "HT-29-transplanted tumor; 1 h after administration", "value": "2.59 ± 0.69", "unit": "% ID"}, {"measurement": "Accumulation of radioactivity: Tumor (HT-29)", "setting": "HT-29-transplanted tumor; 1 h after administration", "value": "3.81 ± 0.79 % ID/tissue weight (g)"}, {"measurement": "Tumor/blood", "setting": "HT-29-transplanted tumor; 1 h after administration", "value": "14.41 ± 3.35"}, {"measurement": "Tumor/muscle", "setting": "HT-29-transplanted tumor; 1 h after administration", "value": "0.74 ± 0.25"}, {"measurement": "Accumulation of radioactivity: Blood", "setting": "HT-29-transplanted tumor; 4 h after administration", "value": "0.25 ± 0.18 % ID/tissue weight (g)"}, {"measurement": "Accumulation of radioactivity: Brain", "setting": "HT-29-transplanted tumor; 4 h after administration", "value": "0.35 ± 0.05 % ID/tissue weight (g)"}, {"measurement": "Accumulation of radioactivity: Heart", "setting": "HT-29-transplanted tumor; 4 h after administration", "value": "3.49 ± 0.74 % ID/tissue weight (g)"}, {"measurement": "Accumulation of radioactivity: Intestines", "setting": "HT-29-transplanted tumor; 4 h after administration", "value": "14.20 ± 1.28 % ID/tissue weight (g)"}, {"measurement": "Accumulation of radioactivity: Kidney", "setting": "HT-29-transplanted tumor; 4 h after administration", "value": "115.12 ± 8.70 % ID/tissue weight (g)"}, {"measurement": "Accumulation of radioactivity: Liver", "setting": "HT-29-transplanted tumor; 4 h after administration", "value": "3.86 ± 0.92 % ID/tissue weight (g)"}, {"measurement": "Accumulation of radioactivity: Lungs", "setting": "HT-29-transplanted tumor; 4 h after administration", "value": "5.09 ± 1.69 % ID/tissue weight (g)"}, {"measurement": "Accumulation of radioactivity: Muscle", "setting": "HT-29-transplanted tumor; 4 h after administration", "value": "2.69 ± 0.76 % ID/tissue weight (g)"}, {"measurement": "Accumulation of radioactivity: Pancreas", "setting": "HT-29-transplanted tumor; 4 h after administration", "value": "18.81 ± 2.04 % ID/tissue weight (g)"}, {"measurement": "Accumulation of radioactivity: Spleen", "setting": "HT-29-transplanted tumor; 4 h after administration", "value": "0.31 ± 0.12 % ID/tissue weight (g)"}, {"measurement": "Accumulation of radioactivity: Stomach", "setting": "HT-29-transplanted tumor; 4 h after administration", "value": "5.22 ± 0.79", "unit": "% ID"}, {"measurement": "Accumulation of radioactivity: Tumor (HT-29)", "setting": "HT-29-transplanted tumor; 4 h after administration", "value": "4.20 ± 0.68 % ID/tissue weight (g)"}, {"measurement": "Tumor/blood", "setting": "HT-29-transplanted tumor; 4 h after administration", "value": "21.70 ± 8.65"}, {"measurement": "Tumor/muscle", "setting": "HT-29-transplanted tumor; 4 h after administration", "value": "1.62 ± 0.33"}, {"measurement": "Accumulation of radioactivity: Blood", "setting": "HT-29-transplanted tumor; 8 h after administration", "value": "0.18 ± 0.02 % ID/tissue weight (g)"}, {"measurement": "Accumulation of radioactivity: Brain", "setting": "HT-29-transplanted tumor; 8 h after administration", "value": "0.41 ± 0.05 % ID/tissue weight (g)"}, {"measurement": "Accumulation of radioactivity: Heart", "setting": "HT-29-transplanted tumor; 8 h after administration", "value": "2.16 ± 0.31 % ID/tissue weight (g)"}, {"measurement": "Accumulation of radioactivity: Intestines", "setting": "HT-29-transplanted tumor; 8 h after administration", "value": "14.99 ± 1.27 % ID/tissue weight (g)"}, {"measurement": "Accumulation of radioactivity: Kidney", "setting": "HT-29-transplanted tumor; 8 h after administration", "value": "83.81 ± 7.88 % ID/tissue weight (g)"}, {"measurement": "Accumulation of radioactivity: Liver", "setting": "HT-29-transplanted tumor; 8 h after administration", "value": "3.15 ± 0.78 % ID/tissue weight (g)"}, {"measurement": "Accumulation of radioactivity: Lungs", "setting": "HT-29-transplanted tumor; 8 h after administration", "value": "3.54 ± 1.19 % ID/tissue weight (g)"}, {"measurement": "Accumulation of radioactivity: Muscle", "setting": "HT-29-transplanted tumor; 8 h after administration", "value": "1.75 ± 0.37 % ID/tissue weight (g)"}, {"measurement": "Accumulation of radioactivity: Pancreas", "setting": "HT-29-transplanted tumor; 8 h after administration", "value": "9.80 ± 2.34 % ID/tissue weight (g)"}, {"measurement": "Accumulation of radioactivity: Spleen", "setting": "HT-29-transplanted tumor; 8 h after administration", "value": "0.21 ± 0.05 % ID/tissue weight (g)"}, {"measurement": "Accumulation of radioactivity: Stomach", "setting": "HT-29-transplanted tumor; 8 h after administration", "value": "6.09 ± 0.82", "unit": "% ID"}, {"measurement": "Accumulation of radioactivity: Tumor (HT-29)", "setting": "HT-29-transplanted tumor; 8 h after administration", "value": "5.16 ± 0.62 % ID/tissue weight (g)"}, {"measurement": "Tumor/blood", "setting": "HT-29-transplanted tumor; 8 h after administration", "value": "29.14 ± 5.15"}, {"measurement": "Tumor/muscle", "setting": "HT-29-transplanted tumor; 8 h after administration", "value": "3.03 ± 0.66"}, {"measurement": "Accumulation of radioactivity: Blood", "setting": "HT-29-transplanted tumor; 24 h after administration", "value": "0.16 ± 0.02 % ID/tissue weight (g)"}, {"measurement": "Accumulation of radioactivity: Brain", "setting": "HT-29-transplanted tumor; 24 h after administration", "value": "0.48 ± 0.03 % ID/tissue weight (g)"}, {"measurement": "Accumulation of radioactivity: Heart", "setting": "HT-29-transplanted tumor; 24 h after administration", "value": "1.56 ± 0.30 % ID/tissue weight (g)"}, {"measurement": "Accumulation of radioactivity: Intestines", "setting": "HT-29-transplanted tumor; 24 h after administration", "value": "17.99 ± 1.59 % ID/tissue weight (g)"}, {"measurement": "Accumulation of radioactivity: Kidney", "setting": "HT-29-transplanted tumor; 24 h after administration", "value": "65.13 ± 7.13 % ID/tissue weight (g)"}, {"measurement": "Accumulation of radioactivity: Liver", "setting": "HT-29-transplanted tumor; 24 h after administration", "value": "2.21 ± 0.34 % ID/tissue weight (g)"}, {"measurement": "Accumulation of radioactivity: Lungs", "setting": "HT-29-transplanted tumor; 24 h after administration", "value": "2.06 ± 0.66 % ID/tissue weight (g)"}, {"measurement": "Accumulation of radioactivity: Muscle", "setting": "HT-29-transplanted tumor; 24 h after administration", "value": "1.43 ± 0.53 % ID/tissue weight (g)"}, {"measurement": "Accumulation of radioactivity: Pancreas", "setting": "HT-29-transplanted tumor; 24 h after administration", "value": "8.13 ± 0.91 % ID/tissue weight (g)"}, {"measurement": "Accumulation of radioactivity: Spleen", "setting": "HT-29-transplanted tumor; 24 h after administration", "value": "0.42 ± 0.18 % ID/tissue weight (g)"}, {"measurement": "Accumulation of radioactivity: Stomach", "setting": "HT-29-transplanted tumor; 24 h after administration", "value": "8.74 ± 0.46", "unit": "% ID"}, {"measurement": "Accumulation of radioactivity: Tumor (HT-29)", "setting": "HT-29-transplanted tumor; 24 h after administration", "value": "8.71 ± 1.41 % ID/tissue weight (g)"}, {"measurement": "Tumor/blood", "setting": "HT-29-transplanted tumor; 24 h after administration", "value": "53.56 and 53.56 ± 5.53"}, {"measurement": "Tumor/muscle", "setting": "HT-29-transplanted tumor; 24 h after administration", "value": "6.59 and 6.59 ± 2.18"}, {"measurement": "Accumulation in the HT-29-transplanted tumor", "setting": "HT-29-transplanted tumor; one hour after administration", "value": 3.81, "unit": "% ID/g"}, {"measurement": "Accumulation in the transplanted tumor (SPECT/CT)", "setting": "MDA-MB-231 tumor", "value": "not observed"}]}
